Values of other authors as cited in patent publication EP0959130A1, “Cloning and expression of a new glucoamylase gene from endomyces fibuliger” (SOCIETE DES PRODUITS NESTLE S.A., priority 1998, dated 1999).

Columns and labels:
[1] = tested on: Glucoamylase I from E.fibuliger IFO 0111; conditions: purified Glucoamylase I; from Futatsugi et al., 1993; read-out: Km for maltose
[2] = tested on: Glucoamylase II from E.fibuliger IFO 0111; conditions: purified Glucoamylase II; from Futatsugi et al., 1993; read-out: Km for maltose

Which Km [1] does the source give for OC[C@H]1O[C@H](O[C@H]2[C@H](O)[C@@H](O)C(O)O[C@@H]2CO)[C@H](O)[C@@H](O)[C@@H]1O (mixture of isomers) [maltose] here?
Its Km is 8.3 mM.

And the Km [2]?
Its Km is 2.6 mM.
